Data as given in ChEMBL document CHEMBL1124186, “Synthesis and evaluation of tylosin-related macrolides modified at the aldehyde function: a new series of orally effective antibiotics” (1988).
Values after ≈ are worked out from the molar mass of the structure shown.

Tests used:
Haemophilus influenzae [1] = assay: In vitro antimicrobial activity against Haemophilus influenzae.; format: functional
[2] = test system: Staphylococcus epidermidis; assay: In vitro antimicrobial activity against Staphylococcus epidermidis EPI1; format: functional
Staphylococcus aureus [3] = assay: In vitro antimicrobial activity against Staphylococcus aureus X1; format: functional
Streptococcus pyogenes [4] = assay: In vivo effective dose against experimental infections in rodent caused by Streptococcus pyogenes C203 when administered subcutaneously; format: functional; conditions: sc
Streptococcus pneumoniae [5] = assay: In vitro antimicrobial activity against Streptococcus pneumoniae; format: functional
Streptococcus pyogenes [6] = assay: In vivo effective dose against experimental infections in rodent caused by Streptococcus pyogenes C203 when administered orally; format: functional; conditions: po
Enterococcus faecium = assay: In vitro antimicrobial activity against Streptococcus faecium X66; format: functional, streptococcus fae-cium
Streptococcus pyogenes [7] = assay: In vitro antimicrobial activity against Streptococcus pyogenes C203; format: functional
[8] = test system: Prevotella melaninogenica; assay: In vitro antimicrobial activity against anaerobic bacteria bacteroides melaninogenicus 1856,; format: functional
Streptococcus [9] = assay: In vitro antimicrobial activity against aerobic bacteria Streptococcus D 2041; format: functional
Staphylococcus aureus [10] = assay: In vivo effective dose against experimental infections in mice Staphylococcus aureus X1 when administered orally; format: functional; conditions: po
Staphylococcus aureus [11] = assay: In vitro antimicrobial activity against aerobic bacteria Staphylococcus aureus V135; format: functional
Bacteroides fragilis [12] = assay: In vitro antimicrobial activity against anaerobic bacteria bacteroides fragilis 1936B,; format: functional
Collinsella aerofaciens = assay: In vitro antimicrobial activity against anaerobic bacteria eubacterium aerofaciens 1235; format: functional
Cutibacterium acnes = assay: In vitro antimicrobial activity against anaerobic bacteria propionibacterium acnes 79; format: functional
Staphylococcus aureus [13] = assay: In vitro antimicrobial activity against aerobic bacteria Staphylococcus aureus 513E; format: functional
Clostridium perfringens = assay: In vitro antimicrobial activity against anaerobic bacteria clostridium perfringens 81,; format: functional
Streptococcus pneumoniae [14] = assay: In vivo effective dose against experimental infections in mice Strep. pneumoniae park when administered orally; format: functional; conditions: po
[15] = test system: Prevotella melaninogenica; assay: In vitro antimicrobial activity against anaerobic bacteria bacteroides melaninogenicus 2736; format: functional
Streptococcus viridans = assay: In vitro antimicrobial activity against aerobic bacteria Streptococcus viridans 9943; format: functional
Streptococcus [16] = assay: In vitro antimicrobial activity against aerobic bacteria Streptococcus G Kruder; format: functional; conditions: Streptococcus; read-out: MIC
Streptococcus [17] = assay: In vitro antimicrobial activity against aerobic bacteria Streptococcus B 14; format: functional
Haemophilus influenzae [18] = assay: In vitro antimicrobial activity against aerobic bacteria Haemophilus influenzae 76; format: functional
[19] = test system: Peptostreptococcus anaerobius; assay: In vitro antimicrobial activity against anaerobic bacteria eubacterium peptostreptococcus anaerobius 1428,; format: functional
Clostridium septicum = assay: In vitro antimicrobial activity against anaerobic bacteria clostridium septicum 1128; format: functional
Streptococcus pneumoniae [20] = assay: In vitro antimicrobial activity against aerobic bacteria Streptococcus pneumoniae B1-438; format: functional, streptococcus pneum
Fusobacterium = assay: In vitro antimicrobial activity against anaerobic bacteria fusobacterium symbiosum 1470; format: functional
Staphylococcus aureus [21] = assay: In vivo effective dose against experimental infections in mice Staphylococcus aureus X1 when administered sc; format: functional
Streptococcus pyogenes [22] = assay: In vivo effective dose against experimental infections in rodent caused by Streptococcus pyogenes C203 when administered sc; format: functional
Streptococcus sanguinis = assay: In vitro antimicrobial activity against aerobic bacteria Streptococcus sanguis MX132; format: functional
Staphylococcus aureus [23] = assay: In vitro antimicrobial activity against aerobic bacteria Staphylococcus aureus V41; format: functional
Haemophilus influenzae [24] = assay: In vitro antimicrobial activity against aerobic bacteria Haemophilus influenzae MX366; format: functional
Staphylococcus aureus [25] = assay: In vitro antimicrobial activity against aerobic bacteria Staphylococcus aureus V140,; format: functional
[26] = test system: Bacteroides thetaiotaomicron; assay: In vitro antimicrobial activity against anaerobic bacteria bacteroides thetaiotaomicron 1438; format: functional
Clostridioides difficile = assay: In vitro antimicrobial activity against anaerobic bacteria Clostridium difficile 2994; format: functional
Anaerococcus prevotii = assay: In vitro antimicrobial activity against anaerobic bacteria peptococcus prevoti 1281; format: functional
Streptococcus [27] = assay: In vitro antimicrobial activity against aerobic bacteria Streptococcus B 5; format: functional
Streptococcus [28] = assay: In vitro antimicrobial activity against aerobic bacteria Streptococcus D 9960; format: functional
[29] = test system: Fusobacterium necrophorum; assay: In vitro antimicrobial activity against anaerobic bacteria usobacterium necrophorum 6054A; format: functional
Chlamydia trachomatis = assay: In vitro antimicrobial activity against chlamydia trachomatis.; format: functional
Phocaeicola vulgatus = assay: In vitro antimicrobial activity against anaerobic bacteria bacteroides vulgatus 1211; format: functional
Streptococcus [30] = assay: In vitro antimicrobial activity against aerobic bacteria Streptococcus C 24; format: functional
Bacteroides fragilis [31] = assay: In vitro antimicrobial activity against anaerobic bacteria bacteroides fragilis 111; format: functional
Eikenella corrodens = assay: In vitro antimicrobial activity against anaerobic bacteria bacteroides corrodens 1874; format: functional
[32] = In vitro antimicrobial activity against anaerobic bacteria peptostreptococcus intermedius 1264; format: functional
Staphylococcus aureus [33] = assay: In vitro antimicrobial activity against aerobic bacteria Staphylococcus aureus X400; format: functional
Bacteroides fragilis [34] = assay: In vitro antimicrobial activity against anaerobic bacteria bacteroides fragilis 1877; format: functional
[35] = test system: Staphylococcus epidermidis; assay: In vitro antimicrobial activity against aerobic bacteria Streptococcus epi 270; format: functional
Streptococcus pneumoniae [36] = assay: In vivo effective dose against experimental infections in mice Strep. pneumoniae park when administered sc; format: functional
Streptococcus [37] = assay: In vitro antimicrobial activity against aerobic bacteria Streptococcus D 8043; format: functional
[38] = test system: Staphylococcus epidermidis; assay: In vitro antimicrobial activity against aerobic bacteria Streptococcus epi 222; format: functional
[39] = test system: Peptoniphilus asaccharolyticus; assay: In vitro antimicrobial activity against anaerobic bacteria peptococcus asaccharolyticus 1302; format: functional
Streptococcus [40] = assay: In vitro antimicrobial activity against aerobic bacteria Streptococcus B 8; format: functional

For CC[C@H]1OC(=O)C[C@@H](O)[C@H](C)[C@@H](O[C@@H]2O[C@H](C)[C@@H](O[C@H]3C[C@@](C)(O)[C@@H](O)[C@H](C)O3)[C@H](N(C)C)[C@H]2O)[C@@H](CCO)C[C@@H](C)C(=O)/C=C/C(C)=C/[C@@H]1CO[C@@H]1O[C@H](C)[C@@H](O)[C@@H](O)[C@H]1OC, the MIC (Haemophilus influenzae [1]) was > 128 µg/mL, the MIC [2] was 4 µg/mL (≈ 4.42 µM) and the MIC (Staphylococcus aureus [3]) was 16 µg/mL (≈ 17.7 µM). For the same compound, the ED50 (Streptococcus pyogenes [4]) was > 10 mg/kg, the MIC (Streptococcus pneumoniae [5]) was 32 µg/mL (≈ 35.4 µM) and the ED50 (Streptococcus pyogenes [6]) was > 100 mg/kg. It also gave an MIC (Enterococcus faecium) of 128 µg/mL (≈ 142 µM) and an MIC (Streptococcus pyogenes [7]) of 4 µg/mL (≈ 4.42 µM).
CC[C@H]1OC(=O)C[C@@H](O)[C@H](C)[C@@H](O[C@@H]2O[C@H](C)[C@@H](O)[C@H](N(C)C)[C@H]2O)[C@@H](CCN=[N+]=[N-])C[C@@H](C)C(=O)/C=C/C(C)=C/[C@@H]1CO[C@@H]1O[C@H](C)[C@@H](O)[C@@H](OC)[C@H]1OC gave an MIC (Haemophilus influenzae [1]) of 16 µg/mL (≈ 20 µM), an MIC [8] of 1 µg/mL (≈ 1.25 µM) and an MIC (Streptococcus [9]) of 16 µg/mL (≈ 20 µM). For the same compound, the MIC [2] was 0.12 µg/mL (≈ 0.15 µM), the ED50 (Staphylococcus aureus [10]) was 18 mg/kg and the MIC (Staphylococcus aureus [11]) was 0.25 µg/mL (≈ 0.313 µM). It also gave an MIC (Staphylococcus aureus [3]) of 0.12 µg/mL (≈ 0.15 µM), an MIC (Bacteroides fragilis [12]) of 2 µg/mL (≈ 2.5 µM) and an MIC (Collinsella aerofaciens) of 2 µg/mL (≈ 2.5 µM). For the same compound, the MIC (Cutibacterium acnes) was 16 µg/mL (≈ 20 µM), the MIC (Staphylococcus aureus [13]) was 0.12 µg/mL (≈ 0.15 µM) and the MIC (Clostridium perfringens) was < 0.5 µg/mL. The ED50 (Streptococcus pneumoniae [14]) was > 50 mg/kg, the MIC [15] was 2 µg/mL (≈ 2.5 µM) and the MIC (Streptococcus viridans) was > 128 µg/mL. For the same compound, the MIC (Streptococcus [16]) was 64 µg/mL (≈ 80.1 µM), the MIC (Streptococcus [17]) was 16 µg/mL (≈ 20 µM) and the MIC (Haemophilus influenzae [18]) was 4 µg/mL (≈ 5.01 µM). The MIC [19] was < 0.5 µg/mL, the MIC (Clostridium septicum) was < 0.5 µg/mL and the MIC (Streptococcus pneumoniae [20]) was > 128 µg/mL. The MIC (Fusobacterium) was 2 µg/mL (≈ 2.5 µM), the ED50 (Staphylococcus aureus [21]) was 2.8 mg/kg and the MIC (Streptococcus pneumoniae [5]) was 2 µg/mL (≈ 2.5 µM). It also gave an ED50 (Streptococcus pyogenes [22]) of 3.8 mg/kg, an MIC (Streptococcus sanguinis) of 1 µg/mL (≈ 1.25 µM) and an MIC (Staphylococcus aureus [23]) of 0.12 µg/mL (≈ 0.15 µM). For the same compound, the MIC (Haemophilus influenzae [24]) was 32 µg/mL (≈ 40.1 µM), the MIC (Staphylococcus aureus [25]) was 0.25 µg/mL (≈ 0.313 µM) and the MIC [26] was 2 µg/mL (≈ 2.5 µM). For the same compound, the MIC (Clostridioides difficile) was < 0.5 µg/mL, the MIC (Anaerococcus prevotii) was 2 µg/mL (≈ 2.5 µM) and the MIC (Streptococcus [27]) was 8 µg/mL (≈ 10 µM). The MIC (Streptococcus [28]) was 8 µg/mL (≈ 10 µM), the MIC [29] was 16 µg/mL (≈ 20 µM) and the MIC (Chlamydia trachomatis) was 0.5 µg/mL (≈ 0.626 µM). For the same compound, the MIC (Phocaeicola vulgatus) was 2 µg/mL (≈ 2.5 µM), the MIC (Streptococcus [30]) was 0.5 µg/mL (≈ 0.626 µM) and the MIC (Bacteroides fragilis [31]) was 2 µg/mL (≈ 2.5 µM). It also gave an MIC (Enterococcus faecium) of 4 µg/mL (≈ 5.01 µM), an MIC (Eikenella corrodens) of 2 µg/mL (≈ 2.5 µM) and an MIC (Streptococcus pyogenes [7]) of 0.25 µg/mL (≈ 0.313 µM). For the same compound, the MIC [32] was 2 µg/mL (≈ 2.5 µM), the MIC (Staphylococcus aureus [33]) was 0.25 µg/mL (≈ 0.313 µM) and the MIC (Bacteroides fragilis [34]) was 2 µg/mL (≈ 2.5 µM). For the same compound, the MIC [35] was > 128 µg/mL, the ED50 (Streptococcus pneumoniae [36]) was > 20 mg/kg and the MIC (Streptococcus [37]) was 4 µg/mL (≈ 5.01 µM). It also gave an MIC [38] of 0.25 µg/mL (≈ 0.313 µM), an MIC [39] of 1 µg/mL (≈ 1.25 µM) and an MIC (Streptococcus [40]) of 8 µg/mL (≈ 10 µM).
